Consider 5 compounds from patent publication US7166634B2, “Bis-indole pyrroles useful as antimicrobials agents” (Nereus Pharmaceuticals, Inc., priority 2004, dated 2007).

In brackets after ≈: the same amount, converted by molar mass. Several values for one entry are separate records, joined by “and”; a condition that tells them apart may be missing. Identical values can stand only once.

Assay in all cases: MIC, broth microdilution (NCCLS M7-A5)
Type in all cases: cell-based

Assay [1] deals with E. coli - ATCC 25922. As to conditions: Table 3. Here is the method: (§1) Minimum inhibitory concentrations (MICs) are determined according to the National Committee for Clinical Laboratory Standards (NCCLS) susceptibility test guideline M7-A5 (Ferraro, M. 2001 Methods for Dilution Antimicrobial Susceptibility Tests for Bacteria that Grow Aerobically; Approved Standard (NCCLS). National Committee for Clinical Laboratory Standards (NCCLS), Villanova) to quantify the antimicrobial activity of the compounds of the present embodiment against various pathogenic bacteria. Susceptibility testing is performed by broth microdilution in accordance with National Committee for Clinical Laboratory Standards (NCCLS) guidelines. This procedure entails combining the test compounds with a standardized number of cells, incubating at the temperature and amount of time appropriate for each particular organism, and visually scoring the concentration at which no growth was apparent in the test wells. The panel includes both drug sensitive and drug resistant isolates of both gram-positive and gram-negative bacteria, including: S. aureus (both MSSA and MRSA), S. pneumoniae (wild type and penicillin-resistant), vancomycin-sensitive E. faecalis, vancomycin-resistant E. faecium, E. coli, H. influenzae and P. aeruginosa.
(§2) Susceptibility testing was performed by broth microdilution in accordance with National Committee for Clinical Laboratory Standards (NCCLS) guidelines. Antimicrobial data for compounds of Formulae II, III, IV, VI, VII, VIII, IX, XII, XIII, XIV, XV′, XV, XVI, XVII, XVIII, XXI′, XXII, XXIII, XXIV, and XXV are shown in Tables 3, 4 and 5.

The test system of assay [2] is S. pneumoniae - penicillin sensitive (49619). As to conditions: for MIC: S. pneumoniae - penicillin sensitive, Table 3. Here is the method: as §1, §2
Assay [3] deals with H. influenzae - ATCC 49766. As to conditions: for MIC: H. influenzae - ATCC 49766, Table 3. Here is the method: as §1, §2
Assay [4] deals with E. faecium - Van^r (VRE 700221). To be noted: for MIC: E. faecium - Van^r, Table 3. Here is the method: as §1, §2
In assay [5] the test system is S. aureus - MRSA (43300). To be noted: for MIC: S. aureus - MRSA, Table 3. Here is the method: as §1, §2
The test system of assay [6] is S. aureus - MSSA (29213). As to conditions: for MIC: S. aureus - MSSA, Table 3. How it is done: as §1, §2
Assay [7] relates to S. pneumoniae - penicillin resistant (51915). As to conditions: for MIC: S. pneumoniae - penicillin resistant, Table 3. How it is done: as §1, §2
In assay [8] the test system is H. influenzae - ATCC 49247. To be noted: for MIC: H. influenzae - ATCC 49247, Table 3. How it is done: as §1, §2
For assay [9], the system named is E. coli - imp. As to conditions: for MIC: E. coli - imp, Table 3. How it is done:
as §1, §2

For assay [10], the system named is S. epidermidis - ATCC 700578. Also noted: Staph Epi 700578 MIC: unit not given here. As to conditions: for MIC: S. epidermidis - ATCC 700578, Table 3. How it is done: as §1, §2
For assay [11], the system named is S. epidermidis - ATCC 700582. Also noted: Staph Epi 700582 MIC: unit not given here. As to conditions: for MIC: S. epidermidis - ATCC 700582, Table 3. How it is done:
as §1, §2

The test system of assay [12] is E. faecalis - Van^s (VSE 29212). Also noted: VSE 29212 MIC: unit not given here. To be noted: for MIC: E. faecalis - Van^s, Table 3. Here is the method: as §1, §2
Setting [13] is: Table 4, averages of 2 experiments, * single experiment, both values given when differing >2 fold, in µg/mL.
Where [14] appears, read: Table 4 (MIC), averages of 2 experiments, * single experiment, both values given when differing >2 fold.
Where [15] appears, read: Table 4, averages of 2 experiments, * single experiment, both values given when differing >2 fold.

In the case of `Clc1cc2[nH]cc(-c3c[nH]cc3-c3c[nH]c4cc(Cl)c(Cl)cc34)c2cc1Cl` [IV], the MIC in [1] is over 32 µg/mL; in [2] it was 20 µg/mL (≈ 46 µM); in assay [3] it was 6 µg/mL (≈ 13.8 µM); in [4], 2 µg/mL (≈ 4.6 µM); in assay [5], 1.5 µg/mL (≈ 3.45 µM); in [6] it was 1.1 µg/mL (≈ 2.53 µM). Further, the MIC amounted to 20 µg/mL (≈ 46 µM) in [7]; 4 µg/mL (≈ 9.19 µM) in assay [8]; 6 µg/mL (≈ 13.8 µM) in assay [9]; 1 µg/mL (≈ 2.3 µM) in assay [10]; 1 µg/mL (≈ 2.3 µM) in assay [11]; 2.5 µg/mL (≈ 5.75 µM) in [12].
Consider `COC(=O)c1[nH]cc(-c2c[nH]c3ccc(Cl)cc23)c1-c1c[nH]c2ccc(Cl)cc12` [III], for which the MIC in assay [1] was over 32 µg/mL; in [2], 24 µg/mL (≈ 56.6 µM); in [3], 12 µg/mL (≈ 28.3 µM); in [4], 8 µg/mL (≈ 18.9 µM); in assay [5], 2 µg/mL (≈ 4.71 µM); in [6] it was 1.8 µg/mL (≈ 4.24 µM). For the same compound, the MIC in assay [7] was found to be 24 µg/mL (≈ 56.6 µM); in assay [8], 16 µg/mL (≈ 37.7 µM); in [9] it was 16 µg/mL (≈ 37.7 µM); in assay [10] it was 4 µg/mL (≈ 9.43 µM); in assay [11], 4 µg/mL (≈ 9.43 µM); in assay [12] it was 8 µg/mL (≈ 18.9 µM).
In the case of `COC(=O)c1[nH]c(C(=O)OC)c(-c2c[nH]c3ccc(Cl)cc23)c1-c1c[nH]c2ccc(Cl)cc12` [VI], the MIC in assay [1] is over 32 µg/mL; in assay [2], 24 µg/mL (≈ 49.8 µM); in assay [3], 8 µg/mL (≈ 16.6 µM); in assay [4], 8 µg/mL (≈ 16.6 µM); in [5], 3 µg/mL (≈ 6.22 µM); in assay [6] it was 3 µg/mL (≈ 6.22 µM). In addition, the MIC is 20 µg/mL (≈ 41.5 µM) in assay [7]; 5 µg/mL (≈ 10.4 µM) in assay [8]; over 32 µg/mL in assay [9]; 4 µg/mL (≈ 8.29 µM) in [10]; 4 µg/mL (≈ 8.29 µM) in assay [11]; 8 µg/mL (≈ 16.6 µM) in [12].
With `COC(=O)c1[nH]cc(-c2c[nH]c3cc(Cl)c(Cl)cc23)c1-c1c[nH]c2ccc(Cl)cc12` [II], the MIC was over 32 µg/mL in [1]; 8 µg/mL (≈ 17.4 µM) in assay [2]; 6 µg/mL (≈ 13.1 µM) in [3]; 2 µg/mL (≈ 4.36 µM) in assay [4]; 1 µg/mL (≈ 2.18 µM) in [5]; 0.8 µg/mL (≈ 1.74 µM) in [6]. Further, the MIC in assay [7] was 8 µg/mL (≈ 17.4 µM); in assay [8], 2 µg/mL (≈ 4.36 µM); in assay [9], 6 µg/mL (≈ 13.1 µM); in assay [10], 1 µg/mL (≈ 2.18 µM); in assay [11], 1 µg/mL (≈ 2.18 µM); in assay [12] it was 1.5 µg/mL (≈ 3.27 µM).
As to `COC(=O)c1[nH]cc(-c2c[nH]c3ccc(Br)cc23)c1-c1c[nH]c2ccc(Br)cc12` [XVI], the “S. pneumo 49619 Pen. S MIC” value in assay [2] (setting [13]) amounted to 20. Further, in assay [3] (setting [14]), the “H. inf. 49766” value is 16 and > 32. In addition, the “VRE 700221 MIC” value in [4] (setting [13]) came to 6. In addition, in assay [5] (setting [13]), the “MRSA 43300 MIC” value is 2.5. Moreover, the “MSSA 29213 MIC” value in assay [6] (setting [13]) is 1.4. Also, in assay [7] (setting [13]), the “S. pneumo 51915 Pen R MIC” value was 24. The “H. inf. 49247” value in [8] (setting [14]) was over 32. For the same compound, in assay [9] (Table 5), the “E. coli imp MIC” value was >32, 32 ug/mL. The “Staph Epi 700578 MIC” value in assay [10] (setting [15]) turned out to be 2.5. Besides, the “Staph Epi 700582 MIC” value in [11] (setting [15]) came out at 2.5. In addition, the “VSE 29212 MIC” value in assay [12] (setting [15]) was 5.
